The results in this text go back to ChEMBL document CHEMBL3414549, “Structural investigation of B-Raf paradox breaker and inducer inhibitors” (J Med Chem, 2015).

Each structure is given as a SMILES string. The source made the active and inactive calls. The calls are words filed in the database; no cut-off is given here. A value given as a limit tells only on which side of the number the result lay.

For orientation: Kd means a measure of binding affinity in units of concentration. A lower Kd goes with higher affinity. The EC50 is the concentration needed to bring the measured effect to its halfway point. In general, IC50 refers to the point on the concentration scale where inhibition reaches its midpoint.

For assay [1], the target named is T1, Serine/threonine-protein kinase B-raf (Homo sapiens, UniProt P15056). The experiment in a line: Binding affinity to recombinant human full-length wild type B-Raf (unknown origin) assessed as DSLKK accessible protease cleavage peptide level by LC-MS/MS analysis relative to control.
Target sequence in this assay (P15056 whole entry): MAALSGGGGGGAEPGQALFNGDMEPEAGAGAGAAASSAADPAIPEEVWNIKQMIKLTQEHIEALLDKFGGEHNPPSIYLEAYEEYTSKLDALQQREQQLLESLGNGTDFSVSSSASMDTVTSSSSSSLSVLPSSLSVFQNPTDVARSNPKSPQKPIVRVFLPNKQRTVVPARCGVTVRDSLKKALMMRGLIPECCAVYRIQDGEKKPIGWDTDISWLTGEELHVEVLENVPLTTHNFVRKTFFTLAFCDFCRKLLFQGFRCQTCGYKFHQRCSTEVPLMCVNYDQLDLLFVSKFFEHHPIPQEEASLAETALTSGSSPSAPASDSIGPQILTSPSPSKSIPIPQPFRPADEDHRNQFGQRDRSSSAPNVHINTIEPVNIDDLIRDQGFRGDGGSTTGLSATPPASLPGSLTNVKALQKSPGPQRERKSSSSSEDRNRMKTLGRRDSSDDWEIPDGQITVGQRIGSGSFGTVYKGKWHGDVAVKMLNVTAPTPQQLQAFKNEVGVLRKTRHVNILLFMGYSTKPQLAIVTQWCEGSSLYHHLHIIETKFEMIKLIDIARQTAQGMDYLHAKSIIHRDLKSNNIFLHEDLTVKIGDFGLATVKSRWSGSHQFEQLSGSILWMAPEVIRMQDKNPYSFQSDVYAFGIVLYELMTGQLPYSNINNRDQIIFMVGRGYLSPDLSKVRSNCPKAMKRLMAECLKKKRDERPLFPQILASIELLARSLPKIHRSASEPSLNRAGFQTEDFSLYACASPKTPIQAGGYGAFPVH
Assay [2] addresses T1, Serine/threonine-protein kinase B-raf. Description: Binding affinity to recombinant human full-length wild type B-Raf (unknown origin) assessed as SIPIPQPFRPADEDHR accessible protease cleavage peptide level by LC-MS/MS analysis relative to control.
Target sequence in this assay (P15056 whole entry): as above
Assay [3] has the same target. The experiment in a line: Binding affinity to recombinant human full-length wild type B-Raf (unknown origin) assessed as IGSGSFGTVYK accessible protease cleavage peptide level by LC-MS/MS analysis relative to control.
Target sequence in this assay (P15056 whole entry): as above
For assay [4] the target is unchanged. Description: Binding affinity to recombinant human full-length wild type B-Raf (unknown origin) assessed as GYLSPDLSK accessible protease cleavage peptide level by LC-MS/MS analysis relative to control.
Target sequence in this assay (P15056 whole entry): as above
Assay [5] shares this target. The experiment in a line: Binding affinity to recombinant human full-length wild type B-Raf (unknown origin) assessed as VFLPNK accessible protease cleavage peptide level by LC-MS/MS analysis relative to control.
Target sequence in this assay (P15056 whole entry): as above
The target is the same in assay [6]. The experiment in a line: Binding affinity to recombinant human full-length wild type B-Raf (unknown origin) assessed as LIDIAR accessible protease cleavage peptide level by LC-MS/MS analysis relative to control.
Target sequence in this assay (P15056 whole entry): as above
The target is the same in assay [7]. Description: Binding affinity to recombinant human full-length wild type B-Raf (unknown origin) assessed as GDGGSTTGLSATPPASLPGSLTNVK accessible protease cleavage peptide level by LC-MS/MS analysis relative to control.
The target is the same in assay [8]. Description: Binding affinity to recombinant human full-length wild type B-Raf (unknown origin) assessed as DQIIFMVGR accessible protease cleavage peptide level by LC-MS/MS analysis relative to control.
Assay [9] shares this target. Description: Binding affinity to recombinant human full-length wild type B-Raf (unknown origin) assessed as NEVGVLR accessible protease cleavage peptide level by LC-MS/MS analysis relative to control.
Assay [10] shares this target. Description: Binding affinity to recombinant human full-length wild type B-Raf (unknown origin) assessed as IGDFGLATVK accessible protease cleavage peptide level by LC-MS/MS analysis relative to control.
Assay [11] shares this target. Description: Binding affinity to recombinant human full-length wild type B-Raf (unknown origin) assessed as SIIHRDLK accessible protease cleavage peptide level by LC-MS/MS analysis relative to control.
Assay [12] has the same target. Description: Binding affinity to recombinant human full-length wild type B-Raf (unknown origin) assessed as QTAQGMDYLHAK accessible protease cleavage peptide level by LC-MS/MS analysis relative to control.
For assay [13] the target is unchanged. The experiment in a line: Binding affinity to recombinant human full-length wild type B-Raf (unknown origin) assessed as SASEPSLNR accessible protease cleavage peptide level by LC-MS/MS analysis relative to control.
For assay [14] the target is unchanged. The experiment in a line: Binding affinity to recombinant human full-length wild type B-Raf (unknown origin) assessed as 7VVPAR accessible protease cleavage peptide level by LC-MS/MS analysis relative to control.
Assay [15] has the same target. Description: Binding affinity to recombinant human full-length wild type B-Raf (unknown origin) assessed as DSSDDWEIPDGQITVGQR accessible protease cleavage peptide level by LC-MS/MS analysis relative to control.
Assay [16] shares this target. The experiment in a line: Binding affinity to recombinant human full-length wild type B-Raf (unknown origin) assessed as WHGDVAVK accessible protease cleavage peptide level by LC-MS/MS analysis relative to control.
Assay [17] shares this target. The experiment in a line: Binding affinity to recombinant human full-length wild type B-Raf (unknown origin) assessed as SPQKPIVR accessible protease cleavage peptide level by LC-MS/MS analysis relative to control.
For assay [18] the target is unchanged. The experiment in a line: Binding affinity to recombinant human full-length wild type B-Raf (unknown origin) assessed as SNNIFLHEDLTVK accessible protease cleavage peptide level by LC-MS/MS analysis relative to control.
The target is the same in assay [19]. Description: Binding affinity to recombinant human full-length wild type B-Raf (unknown origin) assessed as TPIQAGGYGAFPVH accessible protease cleavage peptide level by LC-MS/MS analysis relative to control.
For assay [20] the target is unchanged. Description: Binding affinity to wild type B-Raf (unknown origin).
For a further assay, the system named is SW-620. The experiment in a line: Inhibition of cell proliferation in human SW620 cells expressing wild type B-Raf after 96 hrs by MTT assay. The class given is functional, cell-based.
The target in assay [21] is T1, Serine/threonine-protein kinase B-raf. Description: Inhibition of phosphorylation of MEK level in human SW620 cells expressing wild type B-Raf at 3 microM after 48 hrs by immunoblotting analysis. The class given is cell-based. Conditions: SW-620. On the technique in general: In western blotting, separated proteins are transferred to a membrane and probed.
For assay [22] the target is unchanged. Description: Activation of tumorigenic wild type B-Raf in human IPC-298 cells with Ras mutation assessed as phosphorylation of ERK. In kind it is cell-based.
Target sequence in this assay (P15056 2-766 limits assumed, change not shown): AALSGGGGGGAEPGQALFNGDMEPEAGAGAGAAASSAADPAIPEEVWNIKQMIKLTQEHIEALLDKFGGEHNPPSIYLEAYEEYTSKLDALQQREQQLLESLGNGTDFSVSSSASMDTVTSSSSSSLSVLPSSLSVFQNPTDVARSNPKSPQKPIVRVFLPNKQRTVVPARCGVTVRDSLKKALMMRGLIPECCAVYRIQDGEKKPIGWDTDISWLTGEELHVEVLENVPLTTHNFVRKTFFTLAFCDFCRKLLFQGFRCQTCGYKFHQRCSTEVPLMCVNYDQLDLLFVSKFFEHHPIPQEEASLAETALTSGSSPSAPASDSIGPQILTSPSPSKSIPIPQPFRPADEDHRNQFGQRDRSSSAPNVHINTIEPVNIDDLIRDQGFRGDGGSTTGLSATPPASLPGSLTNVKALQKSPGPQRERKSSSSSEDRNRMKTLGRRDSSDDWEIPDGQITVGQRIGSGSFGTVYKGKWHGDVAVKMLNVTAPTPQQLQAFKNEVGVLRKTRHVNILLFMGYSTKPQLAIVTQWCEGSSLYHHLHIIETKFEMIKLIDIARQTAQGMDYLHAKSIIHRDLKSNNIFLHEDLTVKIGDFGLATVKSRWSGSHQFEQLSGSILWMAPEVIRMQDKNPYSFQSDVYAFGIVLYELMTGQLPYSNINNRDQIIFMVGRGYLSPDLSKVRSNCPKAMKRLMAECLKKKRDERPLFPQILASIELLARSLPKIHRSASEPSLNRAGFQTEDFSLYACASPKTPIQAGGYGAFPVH
For assay [23], the target named is T2, Serine/threonine-protein kinase B-raf (Homo sapiens, UniProt P15056, V600E). Description: Inhibition of B-Raf V600E mutant in human A375 cells assessed as phosphorylation of ERK. The class given is cell-based, A-375.
The target of assay [24] is T1, Serine/threonine-protein kinase B-raf. Description: Inhibition of phosphorylation of ERK level in human SW620 cells expressing wild type B-Raf at 3 microM after 48 hrs by immunoblotting analysis. In kind it is cell-based. Conditions: SW-620.
The next assay deals with A-375. The experiment in a line: Inhibition of cell proliferation in human A375 cells expressing B-Raf V600E mutant after 96 hrs by MTT assay. In kind it is functional, cell-based.
For assay [25], the target named is T2, Serine/threonine-protein kinase B-raf. Description: Inhibition of B-Raf V600E mutant (unknown origin) assessed as inhibition of phosphorylation of peptide substrate.
Assay [26] has the same target. The experiment in a line: Binding affinity to B-Raf V600E mutant (unknown origin).

T2 sequence (P15056 2-766 V600E limits assumed): as the sequence (P15056 2-766 limits assumed, change not shown) above, with V599E counted along it

For `Nc1ncnc2c1ncn2[C@@H]1O[C@H](COP(=O)(O)OP(=O)(O)OP(=O)(O)O)[C@@H](O)[C@H]1O`, the Ratio in assay [1] worked out at 0.76; in [2] it was 0.75; in assay [3] it was 0.62; in assay [4], 0.76; in assay [5], 0.78; in assay [6], 0.54. Also, the Ratio worked out at 0.68 in [7]; 0.57 in [8]; 0.34 in [9]; 0.72 in assay [10]; 1.16 in assay [11]; 0.81 in assay [12]. Also, the Ratio worked out at 0.94 in [13]; 0.97 in [14]; 0.62 in assay [15]; 0.75 in [16]; 0.64 in assay [17]; 0.77 in assay [18]. Moreover, the Ratio in [19] was 0.95.
For `Nc1ncnc2c1ncn2[C@@H]1O[C@H](COP(=O)(O)OP(=O)(O)O)[C@@H](O)[C@H]1O`, the Ratio in assay [1] is 1.34; in assay [2], 1.34; in [3] it was 1.18; in assay [4], 1.27; in [5], 1.24; in assay [6] it was 0.86. Further, the Ratio stood at 1.28 in assay [7]; 1.36 in assay [8]; 1.13 in [9]; 1.3 in assay [10]; 0.32 in [11]; 1.22 in assay [12]. Moreover, the Ratio in assay [13] was found to be 1.04; in assay [14], 1.21; in assay [15], 0.83; in [16], 0.99; in assay [17], 1.14; in assay [18], 1.9. Further, in assay [19], the Ratio was determined as 1.42.
Take `CCN(C)S(=O)(=O)Nc1ccc(F)c(C(=O)c2c[nH]c3ncc(-c4ccc(Cl)cc4)cc23)c1F`: the Ratio in [1] was found to be 0.93; in assay [2], 1.27; in assay [3], 0.42; in assay [4], 0.41; in [5] it was 0.73; in assay [6], 0.23. Besides, the Ratio in [7] worked out at 1.16; in assay [8], 0.48; in [9] it was 0.12; in assay [10], 0.3; in assay [11], 0.3; in [12] it was 0.36. The Ratio in [13] amounted to 1.53; in assay [14], 0.96; in assay [15] it was 0.37; in assay [16], 0.36; in assay [17] it was 0.94; in assay [18] it was 0.11. Further, in assay [19], the Ratio was 1.22. For the same compound, the Kd in assay [20] amounted to 690 nM; in assay [26] it was 1410 nM. The inhibition result in the assay on SW-620 is “inactive”. In addition, the inhibition entry (in assay [21]; in assay [24]; with A-375) was “Active” throughout. For the same compound, in assay [22], the EC50 was above 10000 nM. For the same compound, the IC50 is below 1000 nM in [23] and below 100 nM in assay [25].
Turning to `Nc1ncnc2c1ncn2[C@@H]1O[C@H](COP(=O)(O)OP(=O)(O)NP(=O)(O)O)[C@@H](O)[C@H]1O`, the Ratio was 0.76 in [1]; 1 in assay [2]; 0.83 in assay [3]; 0.82 in [4]; 0.91 in assay [5]; 0.55 in [6]. The Ratio in assay [7] was determined as 0.98; in assay [8], 0.62; in assay [9] it was 0.46; in assay [10], 0.79; in [11] it was 0.37; in assay [12] it was 0.72. Also, the Ratio in assay [13] came out at 0.95; in [14] it was 0.89; in assay [15] it was 0.71; in assay [16], 0.67; in assay [17], 0.83; in [18], 1.03. Also, in assay [19], the Ratio was determined as 1.14.
In the case of `CCN(C)S(=O)(=O)Nc1ccc(F)c(C(=O)c2c[nH]c3ncc(Cl)cc23)c1F`, the Ratio in assay [1] worked out at 1.71; in assay [2], 1.45; in assay [3], 0.62; in assay [4] it was 0.91; in assay [5] it was 1.01; in [6], 0.5. The Ratio was 1.55 in [7]; 0.83 in assay [8]; 0.37 in [9]; 0.53 in assay [10]; 0.47 in [11]; 0.9 in [12]. For the same compound, the Ratio turned out to be 1.8 in [13]; 1.26 in [14]; 0.56 in assay [15]; 0.5 in assay [16]; 1.11 in assay [17]; 0.21 in assay [18]. Also, the Ratio in [19] is 1.42. Besides, the Kd in assay [20] was found to be 400 nM; in [26], 550 nM. Also, the inhibition result in the assay with SW-620 is “inactive”. Further, the inhibition result (in assay [21]; in assay [24]; in the assay on A-375) was “Active” each time. The EC50 in assay [22] is above 10000 nM. Further, the results for the IC50 in assay [23] and in assay [25] were below 1000 nM and below 100 nM, respectively.
